The target of this assay is T1, Acetyl-CoA acetyltransferase, mitochondrial (Homo sapiens, UniProt P24752).
T1 sequence (P24752 whole entry): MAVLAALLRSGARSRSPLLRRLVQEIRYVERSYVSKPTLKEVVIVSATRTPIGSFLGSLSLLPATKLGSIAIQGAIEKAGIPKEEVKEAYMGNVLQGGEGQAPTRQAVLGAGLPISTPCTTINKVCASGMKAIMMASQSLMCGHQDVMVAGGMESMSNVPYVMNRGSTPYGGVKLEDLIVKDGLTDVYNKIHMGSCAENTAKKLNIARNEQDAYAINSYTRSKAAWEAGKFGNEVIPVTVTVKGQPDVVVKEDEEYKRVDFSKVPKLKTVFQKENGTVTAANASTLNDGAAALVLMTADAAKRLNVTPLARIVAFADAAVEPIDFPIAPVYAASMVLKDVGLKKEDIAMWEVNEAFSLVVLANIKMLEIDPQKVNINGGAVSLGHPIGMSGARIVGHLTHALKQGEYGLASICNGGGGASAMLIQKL
The assay is described as follows: Experimental Method Screening Method of ACAT1 Small Molecule Inhibitors. The procedure:
ACAT1 can catalyze two molecules of acetyl coenzyme A to reversibly form acetoacetyl coenzyme A. Its activity was measured through the reaction between ACAT1-catalyzed substrate acetoacetyl-coenzyme A and coenzyme A, from which the product acetyl-coenzyme A is produced. Since acetoacetyl-coenzyme A is specifically absorbed in a specific spectrum, the impact on the enzyme activity of ACAT1 can be reflected through the detection of an increase or decrease of absorption in a specific spectrum.ACAT1 recombinant proteins were expressed and purified by Escherichia coli, and the concentration of ACAT1 recombinant proteins obtained was 1 mg/mL. The buffers adopted for ACAT1 small molecule inhibitor screening were 50 mM Tris-HCl (pH 8.1), 20 mM MgCl2, and 40 mM KCl. In 200 μL of enzyme catalytic system, 1 μL of ACAT1 recombinant proteins, the substrate […] whose final concentration was changed from 25 μM to 100 μM through a CPM probe, and small molecule inhibitors at different concentrations were added, respectively.

On to `COc1ccc([C@H](O)[C@@H](C)Oc2ccc(OC(=O)/C=C/c3ccc(O)c(O)c3)cc2OC)cc1OC` [US20250248955, Compound M2], for which the IC50 was > 100 µM.
The same measure for `COCOc1ccc(/C=C/C(=O)Nc2ccc(OCCc3ccc(C)cc3)cc2)cc1OCOC` [US20250248955, Compound M14]: 111 µM; for `COCOc1ccc(/C=C/C(=O)Nc2ccc(OCCc3ccc(OC)c(OC)c3)cc2)cc1OCOC` [US20250248955, Compound M16]: 172 µM; for `COCOc1ccc(/C=C/C(=O)Nc2ccc(OCCc3ccc(F)cc3)cc2)cc1OCOC` [US20250248955, Compound M13]: 152 µM.
The result for `COc1ccc([C@@H](O)[C@@H](C)Oc2ccc(OC(=O)/C=C/c3ccc(O)c(O)c3)cc2OC)cc1OC` [US20250248955, Compound M3] reads > 100 µM; that for `COCOc1ccc(/C=C/C(=O)Nc2ccc(OCCc3ccccc3)cc2)cc1OCOC` [US20250248955, Compound M11], 136 µM.
Compound `O=C(/C=C/c1ccc(O)c(O)c1)Nc1ccc(OCCc2ccccc2)cc1` [US20250248955, Compound M4] displayed a concentration for half-maximal inhibition (IC50) of 112 µM.
With `O=C(/C=C/c1ccc(O)c(O)c1)Nc1ccc(OCCc2ccc(F)cc2)cc1` [US20250248955, Compound M6], half-maximal inhibition (IC50) required 134 µM.
The same measure for `O=C(/C=C/c1ccc(O)c(O)c1)Nc1ccc(OCCc2ccc(O)cc2)cc1` [US20250248955, Compound M8]: 114 µM; for `COCOc1ccc(/C=C/C(=O)Nc2ccc(OCCc3ccc(O)cc3)cc2)cc1OCOC` [US20250248955, Compound M15]: 312 µM.

As a reminder, the IC50 is the concentration that inhibits the measured activity by half. Read a high IC50 as weaker potency in that assay.
